Measurements taken from patent US20220251084A1, “PROGRANULIN MODULATORS AND METHODS OF USING THE SAME” (ARKUDA THERAPEUTICS, priority 2019, published 2022).

Test system: progranulin (PGRN) secretion, BV-2 cells
Assay: PGRN assay: progranulin induction cellular assay (ELISA of secreted mouse PGRN)
Type: cell-based
Conditions: for EC50: Mus musculus, BV-2, PGRN assay, Table D, secreted mouse PGRN in cell culture medium, ELISA
How it was run: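 Progranulin induction measured in BV-2 cells plated at about 80% confluence the day before, given 1 h to attach, then incubated 16 h. Secreted mouse PGRN quantified by ELISA.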

| Structure (SMILES) | EC50 | secretion of progranulin (mouse BV2 cells) |
| --- | --- | --- |
| NC[C@@H]1CN(C(=O)N2CCc3ccccc3[C@@H]2c2ccc(F)cc2)CCO1 [Compound 2302, ((R)-2-(aminomethyl)morpholino)((S)-1-(4-fluorophenyl)-3,4-dihydroisoquinolin-2(1H)-yl)methanone] | 160 nM |  |
| NC[C@H]1CN(C(=O)N2CCc3ccccc3[C@@H]2c2ccc(F)cc2)CCO1 [Compound 2303] | 329 nM |  |
| CNC[C@@H]1CN(C(=O)N2CCc3ccccc3[C@@H]2c2ccc(F)cc2)CCO1 [Compound 2306] | 129 nM |  |
| CNC[C@H]1CN(C(=O)N2CCc3ccccc3[C@@H]2c2ccc(F)cc2)CCO1 [Compound 2307] | 483 nM |  |
| O=C(NCC1CNC[C@@H]1O)N1CCc2ccccc2[C@@H]1c1ccc(F)cc1 (stereo partly drawn) [Compound 2308, (S)-1-(4-fluorophenyl)-N-((cis-4-hydroxypyrrolidin-3-yl)methyl)-3,4-dihydroisoquinoline-2(1H)-carboxamide] | 2940 nM |  |
| O=C(O[C@@H]1CNC[C@H]1F)N1CCc2ccccc2[C@@H]1c1ccc(F)cc1 [Compound 2349, (3R,4R)-4-fluoropyrrolidin-3-yl (S)-1-(4-fluorophenyl)-3,4-dihydroisoquinoline-2(1H)-carboxylate] | 346 nM |  |
| O=C(N[C@H]1CNC[C@@H]1F)N1CCc2ccccc2[C@@H]1c1ccc(F)cc1 [Compound 2351, (S)-1-(4-fluorophenyl)-N-((3S,4S)-4-fluoropyrrolidin-3-yl)-3,4-dihydroisoquinoline-2(1H)-carboxamide] | 130 nM |  |
| O=C(N[C@H]1CNC[C@H]1F)N1CCc2ccccc2[C@@H]1c1ccc(F)cc1 [Compound 2352] | 125 nM |  |
| O=C(N[C@@H]1CNC[C@@H]1F)N1CCc2ccccc2[C@@H]1c1ccc(F)cc1 [Compound 2353] | 33.9 nM |  |
| O=C(N[C@@H]1CNC[C@H]1F)N1CCc2ccccc2[C@@H]1c1ccc(F)cc1 [Compound 2360] | 148 nM |  |
| O=C(O[C@H]1CNC[C@@H]1F)N1CCc2ccccc2[C@@H]1c1ccc(F)cc1 [Compound 2361, (3S,4S)-4-fluoropyrrolidin-3-yl (S)-1-(4-fluorophenyl)-3,4-dihydroisoquinoline-2(1H)-carboxylate] | 365 nM |  |
| O=C(O[C@H]1CNC[C@H]1F)N1CCc2ccccc2[C@@H]1c1ccc(F)cc1 [Compound 2362] | > 3160 nM |  |
| O=C(O[C@H]1CN2CCC1CC2)N1CCc2ccccc2[C@@H]1c1ccccc1 [Solifenacin, reference compound] |  | causes the secretion of progranulin |

More lines, main results first:

| EC50 | Structure (SMILES) | secretion of progranulin (mouse BV2 cells) |
| --- | --- | --- |
| > 10000 nM | CN1C[C@@H](NC(=O)N2CCc3ccccc3[C@@H]2c2ccc(F)cc2)C(F)(F)C1 [Compound 2293, (S)—N—((R)-4,4-difluoro-1-methylpyrrolidin-3-yl)-1-(4-fluorophenyl)-3,4-dihydroisoquinoline-2(1H)-carboxamide] |  |
| > 10000 nM | CN1C[C@H](NC(=O)N2CCc3ccccc3[C@@H]2c2ccc(F)cc2)C(F)(F)C1 [Compound 2294, (S)—N—((S)-4,4-difluoro-1-methylpyrrolidin-3-yl)-1-(4-fluorophenyl)-3,4-dihydroisoquinoline-2(1H)-carboxamide] |  |
| 4020 nM | CN(C(=O)N1CCc2ccccc2[C@@H]1c1ccc(F)cc1)[C@@H]1CNCC1(F)F [Compound 2296, (S)—N—((R)-4,4-difluoropyrrolidin-3-yl)-1-(4-fluorophenyl)-N-methyl-3,4-dihydroisoquinoline-2(1H)-carboxamide] |  |
| > 10000 nM | CN(C(=O)N1CCc2ccccc2[C@@H]1c1ccc(F)cc1)[C@H]1CNCC1(F)F [Compound 2297, (S)—N—((S)-4,4-difluoropyrrolidin-3-yl)-1-(4-fluorophenyl)-N-methyl-3,4-dihydroisoquinoline-2(1H)-carboxamide] |  |
| > 10000 nM | CN1C[C@@H](N(C)C(=O)N2CCc3ccccc3[C@@H]2c2ccc(F)cc2)C(F)(F)C1 [Compound 2298, (S)—N—((R)-4,4-difluoro-1-methylpyrrolidin-3-yl)-1-(4-fluorophenyl)-N-methyl-3,4-dihydroisoquinoline-2(1H)-carboxamide] |  |
| > 10000 nM | CN1C[C@H](N(C)C(=O)N2CCc3ccccc3[C@@H]2c2ccc(F)cc2)C(F)(F)C1 [Compound 2299, (S)—N—((S)-4,4-difluoro-1-methylpyrrolidin-3-yl)-1-(4-fluorophenyl)-N-methyl-3,4-dihydroisoquinoline-2(1H)-carboxamide] |  |
| 987 nM | CN(C)[C@@H]1CCN(C(=O)N2CCc3ccccc3[C@@H]2c2ccc(F)cc2)C1 [Compound 2312] |  |
| 2940 nM | CN(C)C[C@@H]1CCN(C(=O)N2CCc3ccccc3[C@@H]2c2ccc(F)cc2)C1 [Compound 2313, ((S)-3-((dimethylamino)methyl)pyrrolidin-1-yl)((S)-1-(4-fluorophenyl)-3,4-dihydroisoquinolin-2(1H)-yl)methanone] |  |
| 1660 nM | CN(C)C[C@H]1CCN(C(=O)N2CCc3ccccc3[C@@H]2c2ccc(F)cc2)C1 [Compound 2314] |  |
| 742 nM | CN1C[C@H](NC(=O)N2CCc3ccccc3[C@@H]2c2ccc(F)cc2)C2(CC2)C1 [Compound 2315] |  |
| 453 nM | CN1C[C@H](NC(=O)N2CCc3ccccc3[C@H]2c2ccc(F)cc2)C2(CC2)C1 [Compound 2316] |  |
| 104 nM | O=C(O[C@@H]1CNC[C@@H]1F)N1CCc2ccccc2[C@@H]1c1ccc(F)cc1 [Compound 2363] |  |
